Laboratory results as given in US4638070A, “Heterocyclic amino-alcohol derivatives” (Continental Pharma, priority 1980, dated 1987).

Assays:
[1] = Acute toxicity, oral, LD50 (Litchfield and Wilcoxon); settings: mouse, in vivo, fasted male mice, confidence limits p=95% in brackets
Method: (1) The acute toxicity was determined on fasted male mice. The tested substances were orally administered and LD50 values (lethal dose for 50% of animals) were calculated according to the method of Litchfield and Wilcoxon (J. Pharmacol. exp. Ther. 96, 94-113, 1949). These LD50 values are given in mg/kg and also, when possible, with their confidence limits for p=95%.

[2] = test system: guinea-pig ileum (histamine contractions); experiment: Antispasmodic activity in vitro, contractions caused by histamine; settings: added 15 minutes before spasm-producing agent
Method: (§1) (4) The antispasmodic activity was measured in vitro, on guinea-pig ileum, the contractions of which were caused by histammne (Hist.), acetylcholine (Achol) or barium chloride (BaCl2). The tested products were added to perfusion bath 15 minutes before the spasm-producing agents.
(§2) The dose is given in micograms (μg) per ml of bath causing complete spasm inhibition.

[3] = test system: guinea-pig ileum (acetylcholine contractions); experiment: Antispasmodic activity in vitro, contractions caused by acetylcholine; settings: added 15 minutes before spasm-producing agent
Method: as §1, §2

femoral artery = experiment: Vasodilator activity, femoral artery (technique of perfused paw); format: in vivo; parameters: key: O: no action; +: slight activity; ++: effect equal to half the effect of papaverine; +++: effect equal to that of papaverine; ++++: effect higher than that of papaverine; settings: intra-arterial, 30 mg/kg, anaesthetized dog, vs papaverine at same dose
Method: (3) The vasodilator activity was measured at the level of femoral artery on anaesthetized dog (technique of perfused paw). The tested substances were given intra-arterially at the rate of 30 mg/kg. Results are expressed with respect to papaverine tested at the same dose.
++: effect equal to half the effect of papaverine.
+++: effect equal to that of papaverine.
++++: effect higher than that of papaverine.

Row | Compound | LD50 [1] [mg/kg] | ANTISPASMODIC ACTIVITY HIST. (dose causing complete spasm inhibition) [2] [μg per ml] | ANTISPASMODIC ACTIVITY ACHOL (dose causing complete spasm inhibition) [3] [μg per ml] | VASODILATOR ACTIVITY (femoral artery)
1 | CC(NCCCCc1ccccc1)C(O)c1ccc2c(c1)CCS2 (stereo not drawn) [No 7, 1-(2,3-dihydro-5-benzo[b]thienyl)-2-(4-phenylbutylamino)-1-propanol] | 860 | – | – | –
2 | CC(NCCCCc1ccccc1)C(O)c1ccc2c(c1)CCCCS2 (stereo not drawn) [No 12, 1-(2,3,4,5-tetrahydrobenzo[b]thiepin-7-yl)-2-(4-phenylbutylamino)-1-propanol] | 5200 | – | – | –
3 | CCCCCCCCNC(C)C(O)c1ccc2c(c1)CC(C)S2 (stereo not drawn) [No 18] | 3350 | – | – | –
4 | CC(NCCCCSc1ccccc1)C(O)c1ccc2c(c1)CCS2 (stereo not drawn) [No 31] | > 4000 | 0.17 | 1.7 | –
5 | CC(C)NC(C)C(O)c1ccc2c(c1)CCS2 (stereo not drawn) [No 33] | 355 | 16.7 | 16.7 | +++
6 | CC(C)NC(C)C(O)c1ccc2c(c1)CCCCS2 (stereo not drawn) [No 38] | 240 | 3.3 | 8.3 | ++
7 | CC(NC1CCCCC1)C(O)c1ccc2c(c1)CCCS2 (stereo not drawn) [No 41] | – | 8.3 | 8.3 | –
8 | CCCCCCCCNC(C)C(O)c1ccc2c(c1)CC(C)CS2 (stereo not drawn) [No 43] | 3300 | 0.8 | 1.7 | +++
9 | CC(NCCOCc1ccccc1)C(O)c1ccc2c(c1)CCCS2 (stereo not drawn) [No 46] | 4000 | 8.3 | 3.3 | +++
10 | CC1CSc2ccc(C(O)C(C)NCCCc3ccccc3)cc2C1 (stereo not drawn) [No 48] | > 4000 | 0.8 | 1.7 | –
11 | CCCCOCCCNC(C)C(O)c1ccc2c(c1)CCCS2 (stereo not drawn) [No 50] | 900 | 1.7 | 1.7 | +++
12 | CC(NC1CC1)C(O)c1ccc2c(c1)CCCS2 (stereo not drawn) [No 51] | – | 8.3 | 16.7 | ++
13 | CC(NC12CC3CC(CC(C3)C1)C2)C(O)c1ccc2c(c1)CCCS2 (stereo not drawn) [No 52] | – | 1.7 | 1.7 | +++
14 | COc1ccc(OCCNC(C)C(O)c2ccc3c(c2)CCCS3)cc1 (stereo not drawn) [No 53] | > 4000 | 3.3 | 1.7 | +++
15 | CC(NCCCN1CCNC1=O)C(O)c1ccc2c(c1)CCCS2 (stereo not drawn) [No 56] | – | > 16.7 | > 16.7 | ++
16 | CC(NCCCN1CCCC1)C(O)c1ccc2c(c1)CCCS2 (stereo not drawn) [No 59] | 1120 | 3.3 | 3.3 | +++
17 | COc1ccc(OCCNC(C)C(O)c2ccc3c(c2)CC(C)S3)cc1 (stereo not drawn) [No 66] | – | 1.7 | 3.3 | ++
18 | Cc1ccc(OCCNC(C)C(O)c2ccc3c(c2)CC(C)S3)cc1 (stereo not drawn) [No 79] | – | 1.7 | 0.8 | –
19 | CC(CCCc1ccccc1)NC(C)C(O)c1ccc2c(c1)CC(C)O2 (stereo not drawn) [No 82] | – | 0.3 | 1.7 | ++
20 | CC(=O)Nc1ccc(OCCNC(C)C(O)c2ccc3c(c2)CCCS3)cc1 (stereo not drawn) [No 87] | – | 8.3 | 16.7 | +++
21 | CC(C(O)c1ccc2c(c1)CCCS2)N1CCC(c2ccccc2)CC1 (stereo not drawn) [No 91] | – | 0.8 | 1.7 | +++
22 | CC(NCCCCc1ccccc1)C(OC(=O)C(C)(C)C)c1ccc2c(c1)CCS2 (stereo not drawn) [No 99] | – | 8.3 | 1.7 | –
23 | CC(NCCOc1ccc(NS(C)(=O)=O)cc1)C(O)c1ccc2c(c1)CCS2 (stereo not drawn) [No 103] | – | 3.3 | 16.7 | –
24 | CCCCCCCCNC(CC)C(O)c1ccc2c(c1)CCS2 (stereo not drawn) [No 119] | 1800 | 0.3 | – | ++++
25 | CCCCCCCCNC(C)C(O)c1ccc2c(c1)SCCO2 (stereo not drawn) [No 121] | – | 0.8 | – | +++
26 | CCCCSCCCNC(C)C(O)c1ccc2c(c1)SCCO2 (stereo not drawn) [No 124] | – | 1.7 | – | ++
27 | CCCCSCCCNC(C)C(O)c1ccc2c(c1)CCS2 (stereo not drawn) [No 125] | 3400 | 1.7 | – | ++
28 | CCCCCCCCNC(CC)C(O)c1ccc2c(c1)CCCS2 (stereo not drawn) [No 128] | > 4000 | – | – | –
29 | CCCCCCCCNC(C)C(OC(=O)CCCCCCC)c1ccc2c(c1)CCCS2 (stereo not drawn) [No 136] | > 4000 | – | – | –
30 | CC(C(O)c1ccc2c(c1)CCC2)N1CCC(c2ccccc2)CC1 (stereo not drawn) [No 174] | 2150 | 0.8 | – | +++
